Legend:
Type in all cases: in vivo, C57BL/6J male mice
[1] = Weights of adipose tissues 5 weeks after the beginning of ingestion; settings: conclusion from diet groups, C8 vs C10 or C12
Experimental: (§1) Seven (7)-week-old C57BL/6J male mice (Japan SLC, Inc.) were acclimated with CLEA Rodent Diet CE-2 (manufactured by CLEA Japan, Inc.) for 1 week, and divided into 5 groups (n=9 or 10). Any of feeds having the compositions indicated in Tables 1 and 2, i.e., four types of test diets and a normal diet, was given to the respective groups for 5 weeks. Specifically, as the test diets, MCT diets were prepared by blending MCTs and LCT in a low-carbohydrate high-fat diet feed made based on an AIN-93G standard composition feed, and an LCT diet was prepared by blending LCT (manufactured by Wako Pure Chemical Industries) alone, without MCT, in a low-carbohydrate high-fat diet feed made based on an AIN-93G standard composition feed. […]
(§2) The ingestion amounts of the test diets and the body weight changes during the test period (5 weeks) were measured, and the weights of the various organs including adipose tissues and the plasma levels of ketone bodies were measured at the end of the test period. […] In addition, plasma was collected from the collected blood, and ketone bodies were quantified according to an enzymatic method.

[2] = Body weight changes of mice fed test diets for 5 weeks; settings: conclusion from diet groups, C8 vs C10 and C12
Experimental: as §1, §2

[3] = Plasma levels of ketone bodies 5 weeks after the beginning of ingestion (enzymatic method); settings: conclusion from diet groups
Experimental: as §1, §2

Compound: CCCCCCCC(=O)OCC(COC(=O)CCCCCCC)OC(=O)CCCCCCC [caprylic acid triglyceride (C8), caprylic acid triglyceride]
- effect for suppressing neutral fat accumulation depending on the number of carbon atoms of the constituent fatty acid of MCT [1]: has a higher effect for suppressing neutral fat accumulation than that of capric acid triglyceride (C10) or lauric acid triglyceride (C12)
- effect for suppressing body weight gain depending on the number of carbon atoms of the constituent fatty acid of MCT [2]: has a higher effect for suppressing body weight gain than those of capric acid triglyceride (C10) and lauric acid triglyceride (C12)
- ketone body production, C8 vs C10 or C12 triglyceride [3]: produces ketone bodies more than those produced by capric acid triglyceride (C10) or lauric acid triglyceride (C12)

— patent US20210260015A1, “COMPOSITION FOR INHIBITING FAT ACCUMULATION” (National University Corporation Tokyo University of …, priority 2018, published 2021)
